Data from ChEMBL document CHEMBL5465560, “Selectivity Literature for EUbOPEN Chemogenomic Library” (2024).

Key:
[1] = target: Serine/threonine-protein kinase MARK2 (Homo sapiens) (UniProt Q7KZI7); assay: Selectivity interaction (Upstate Kinase Profiler service (Millipore)) EUB0000056c MARK2; settings: at 1 µM
[2] = target: 5'-AMP-activated protein kinase catalytic subunit alpha-2 (Homo sapiens) (UniProt P54646); settings: at 10 µM
[3] = target: T1, Inhibitor of nuclear factor kappa-B kinase subunit beta (Homo sapiens) (UniProt O14920); assay: Selectivity interaction (ActivX KiNativ screen (kinase selectivity in THP-1 cell lysates)) EUB0000639a IKBKB; type: subcellular; settings: lysate, at 0.01 µM
T1 sequence (whole entry): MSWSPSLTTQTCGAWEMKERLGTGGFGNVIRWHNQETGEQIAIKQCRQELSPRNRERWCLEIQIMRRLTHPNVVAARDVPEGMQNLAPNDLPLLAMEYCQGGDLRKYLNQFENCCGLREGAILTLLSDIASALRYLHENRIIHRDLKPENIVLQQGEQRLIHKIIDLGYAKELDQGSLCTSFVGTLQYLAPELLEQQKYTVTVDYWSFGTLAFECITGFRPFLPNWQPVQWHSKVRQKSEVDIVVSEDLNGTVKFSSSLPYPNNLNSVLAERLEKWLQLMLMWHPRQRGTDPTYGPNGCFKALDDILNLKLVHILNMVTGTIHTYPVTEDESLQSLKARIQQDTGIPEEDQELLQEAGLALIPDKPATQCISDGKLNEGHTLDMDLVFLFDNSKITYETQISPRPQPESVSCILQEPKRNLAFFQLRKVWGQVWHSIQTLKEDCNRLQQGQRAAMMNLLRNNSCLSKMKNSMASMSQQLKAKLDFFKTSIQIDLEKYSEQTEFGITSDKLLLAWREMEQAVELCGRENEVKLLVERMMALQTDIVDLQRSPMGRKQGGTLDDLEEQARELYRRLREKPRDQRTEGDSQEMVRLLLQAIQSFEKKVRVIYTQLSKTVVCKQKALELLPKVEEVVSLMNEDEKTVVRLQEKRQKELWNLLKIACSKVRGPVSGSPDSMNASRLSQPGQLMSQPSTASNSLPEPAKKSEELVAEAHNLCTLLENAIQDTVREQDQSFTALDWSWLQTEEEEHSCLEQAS

[4] = target: Leucine-rich repeat serine/threonine-protein kinase 2 (Homo sapiens, UniProt Q5S007); assay: Selectivity interaction (ActivX KiNativ screen (kinase selectivity in THP-1 cell lysates)) EUB0000639a LRRK2; type: subcellular; settings: lysate
Sequence of Leucine-rich repeat serine/threonine-protein kinase 2 (Q5S007 whole entry): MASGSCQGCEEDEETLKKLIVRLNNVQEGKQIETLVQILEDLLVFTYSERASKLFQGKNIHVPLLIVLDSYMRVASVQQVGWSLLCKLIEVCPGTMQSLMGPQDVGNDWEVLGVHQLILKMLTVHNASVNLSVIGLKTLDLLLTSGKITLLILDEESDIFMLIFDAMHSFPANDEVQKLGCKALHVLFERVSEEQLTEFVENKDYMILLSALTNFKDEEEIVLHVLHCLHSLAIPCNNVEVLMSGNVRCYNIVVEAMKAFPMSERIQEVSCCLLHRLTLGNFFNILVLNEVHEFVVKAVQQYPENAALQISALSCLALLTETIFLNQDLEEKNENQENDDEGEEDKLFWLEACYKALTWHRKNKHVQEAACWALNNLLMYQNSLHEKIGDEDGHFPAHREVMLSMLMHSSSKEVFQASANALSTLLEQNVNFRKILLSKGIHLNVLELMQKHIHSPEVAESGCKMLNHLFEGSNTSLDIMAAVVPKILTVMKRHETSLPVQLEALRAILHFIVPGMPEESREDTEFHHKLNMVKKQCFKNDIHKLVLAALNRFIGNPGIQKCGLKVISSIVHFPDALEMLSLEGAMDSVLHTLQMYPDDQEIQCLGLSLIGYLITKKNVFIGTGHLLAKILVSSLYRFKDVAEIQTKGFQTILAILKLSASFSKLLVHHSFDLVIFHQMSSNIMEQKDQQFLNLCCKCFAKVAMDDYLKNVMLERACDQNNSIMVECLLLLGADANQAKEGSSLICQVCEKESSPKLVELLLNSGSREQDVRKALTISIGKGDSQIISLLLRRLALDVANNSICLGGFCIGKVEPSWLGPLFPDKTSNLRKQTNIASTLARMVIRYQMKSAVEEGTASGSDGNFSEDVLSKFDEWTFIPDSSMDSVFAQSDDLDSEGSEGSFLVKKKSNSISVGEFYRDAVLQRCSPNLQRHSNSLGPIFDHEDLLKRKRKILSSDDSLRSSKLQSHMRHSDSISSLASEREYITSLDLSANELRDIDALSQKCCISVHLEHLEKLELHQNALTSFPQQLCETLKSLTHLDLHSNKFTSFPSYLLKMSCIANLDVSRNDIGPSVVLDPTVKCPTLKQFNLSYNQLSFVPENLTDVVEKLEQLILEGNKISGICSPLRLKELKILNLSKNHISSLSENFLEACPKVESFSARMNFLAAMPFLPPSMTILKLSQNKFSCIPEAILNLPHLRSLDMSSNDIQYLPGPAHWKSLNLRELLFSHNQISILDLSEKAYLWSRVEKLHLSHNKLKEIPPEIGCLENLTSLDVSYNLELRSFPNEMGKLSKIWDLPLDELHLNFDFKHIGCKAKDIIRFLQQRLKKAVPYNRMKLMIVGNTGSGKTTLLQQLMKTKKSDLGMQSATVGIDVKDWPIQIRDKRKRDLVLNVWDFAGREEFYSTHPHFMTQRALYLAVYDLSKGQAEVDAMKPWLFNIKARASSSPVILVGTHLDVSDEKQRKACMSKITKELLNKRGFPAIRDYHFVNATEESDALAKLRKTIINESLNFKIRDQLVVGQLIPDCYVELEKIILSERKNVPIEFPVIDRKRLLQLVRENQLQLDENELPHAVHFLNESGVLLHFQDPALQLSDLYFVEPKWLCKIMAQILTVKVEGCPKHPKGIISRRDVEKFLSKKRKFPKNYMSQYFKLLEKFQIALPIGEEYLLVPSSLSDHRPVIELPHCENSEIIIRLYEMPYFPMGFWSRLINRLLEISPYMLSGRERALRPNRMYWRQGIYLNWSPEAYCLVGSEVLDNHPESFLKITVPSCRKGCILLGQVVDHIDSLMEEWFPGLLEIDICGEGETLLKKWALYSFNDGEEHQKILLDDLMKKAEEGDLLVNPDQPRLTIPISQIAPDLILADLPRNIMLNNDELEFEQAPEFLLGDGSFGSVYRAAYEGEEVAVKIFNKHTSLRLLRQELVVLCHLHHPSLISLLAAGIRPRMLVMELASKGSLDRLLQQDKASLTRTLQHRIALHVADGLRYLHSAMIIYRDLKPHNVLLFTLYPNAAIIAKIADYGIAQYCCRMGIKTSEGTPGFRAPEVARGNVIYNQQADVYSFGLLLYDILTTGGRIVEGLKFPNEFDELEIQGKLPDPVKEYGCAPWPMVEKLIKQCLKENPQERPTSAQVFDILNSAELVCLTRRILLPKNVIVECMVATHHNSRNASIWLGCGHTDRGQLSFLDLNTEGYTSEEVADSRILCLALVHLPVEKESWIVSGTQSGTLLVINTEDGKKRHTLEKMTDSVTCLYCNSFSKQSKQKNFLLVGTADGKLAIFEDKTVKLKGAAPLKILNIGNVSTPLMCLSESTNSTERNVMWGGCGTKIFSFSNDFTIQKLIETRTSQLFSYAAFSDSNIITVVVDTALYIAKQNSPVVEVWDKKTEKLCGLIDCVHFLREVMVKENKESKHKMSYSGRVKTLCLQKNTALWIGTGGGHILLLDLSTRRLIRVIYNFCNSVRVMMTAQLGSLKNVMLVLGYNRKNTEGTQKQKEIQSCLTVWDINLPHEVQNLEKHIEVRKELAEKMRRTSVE

[5] = target: Serine/threonine-protein kinase Nek7 (Homo sapiens) (UniProt Q8TDX7); assay: Selectivity interaction (ActivX KiNativ screen (kinase selectivity in THP-1 cell lysates)) EUB0000639a NEK7; type: subcellular; settings: lysate, at 0.2 µM
Sequence of Serine/threonine-protein kinase Nek7 (Homo sapiens) (Q8TDX7 whole entry, looked up): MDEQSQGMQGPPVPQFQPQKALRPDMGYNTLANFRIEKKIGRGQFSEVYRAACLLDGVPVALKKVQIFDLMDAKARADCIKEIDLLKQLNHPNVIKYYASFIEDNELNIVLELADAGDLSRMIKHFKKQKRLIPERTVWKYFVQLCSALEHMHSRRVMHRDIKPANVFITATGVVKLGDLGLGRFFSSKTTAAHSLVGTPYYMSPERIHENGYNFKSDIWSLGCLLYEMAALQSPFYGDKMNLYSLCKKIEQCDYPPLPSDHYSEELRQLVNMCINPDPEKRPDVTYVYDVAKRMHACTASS

[6] = target: Serine/threonine-protein kinase PAK 3 (Homo sapiens) (UniProt O75914); assay: Selectivity interaction (ProQinase) EUB0000171b PAK3
Sequence of Serine/threonine-protein kinase PAK 3 (Homo sapiens) (O75914 whole entry, looked up): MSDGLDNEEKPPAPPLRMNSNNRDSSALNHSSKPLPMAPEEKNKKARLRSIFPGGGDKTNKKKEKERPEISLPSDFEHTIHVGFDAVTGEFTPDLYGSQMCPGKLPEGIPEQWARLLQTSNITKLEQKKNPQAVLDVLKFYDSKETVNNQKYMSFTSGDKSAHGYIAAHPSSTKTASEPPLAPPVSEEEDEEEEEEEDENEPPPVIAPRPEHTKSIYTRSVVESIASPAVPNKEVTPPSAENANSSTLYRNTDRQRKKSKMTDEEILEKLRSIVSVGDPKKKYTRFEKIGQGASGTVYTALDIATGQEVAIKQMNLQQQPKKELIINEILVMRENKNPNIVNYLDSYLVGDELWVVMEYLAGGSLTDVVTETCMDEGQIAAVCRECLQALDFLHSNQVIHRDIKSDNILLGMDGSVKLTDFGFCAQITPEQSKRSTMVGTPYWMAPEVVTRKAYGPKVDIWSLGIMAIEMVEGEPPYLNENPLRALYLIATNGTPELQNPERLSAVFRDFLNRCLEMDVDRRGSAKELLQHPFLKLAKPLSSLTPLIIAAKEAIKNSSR

[7] = target: Mitogen-activated protein kinase kinase kinase 4 (Homo sapiens) (UniProt Q9Y6R4); assay: Selectivity interaction (KinomeScan (DiscoverX)) EUB0000655a MAP3K4; settings: at 10 µM
[8] = target: 5'-AMP-activated protein kinase catalytic subunit alpha-2 (Homo sapiens) (UniProt P54646); assay: Selectivity interaction (KinomeScan (DiscoverX)) EUB0000045b PRKAA2
[9] = target: Activin receptor type-2A (Homo sapiens) (UniProt P27037); assay: Selectivity interaction (KinomeScan (DiscoverX)) EUB0001079a ACVR2A; settings: at 1 µM
Sequence of Activin receptor type-2A (Homo sapiens) (P27037 whole entry): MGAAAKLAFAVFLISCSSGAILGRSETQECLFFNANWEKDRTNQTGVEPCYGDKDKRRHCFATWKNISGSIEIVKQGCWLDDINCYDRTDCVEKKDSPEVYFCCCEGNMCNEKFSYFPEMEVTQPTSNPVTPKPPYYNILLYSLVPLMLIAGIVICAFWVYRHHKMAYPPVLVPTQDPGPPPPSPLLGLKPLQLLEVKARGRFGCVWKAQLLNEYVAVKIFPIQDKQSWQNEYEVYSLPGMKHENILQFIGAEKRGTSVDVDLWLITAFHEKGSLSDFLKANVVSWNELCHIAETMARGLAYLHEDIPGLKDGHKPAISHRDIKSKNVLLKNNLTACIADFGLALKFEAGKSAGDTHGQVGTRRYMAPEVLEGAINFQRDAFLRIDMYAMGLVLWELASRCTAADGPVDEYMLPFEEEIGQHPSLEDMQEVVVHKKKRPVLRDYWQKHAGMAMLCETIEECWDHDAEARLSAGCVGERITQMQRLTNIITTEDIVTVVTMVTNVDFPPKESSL

[10] = target: cAMP-dependent protein kinase catalytic subunit alpha (Homo sapiens, UniProt P17612); assay: Selectivity interaction (KinomeScan (DiscoverX)) EUB0000229b PRKACA; settings: at 10 µM
[11] = target: T2, TGF-beta receptor type-1 (Homo sapiens) (UniProt P36897); assay: Selectivity interaction (KinomeScan (DiscoverX)) EUB0000092b TGFBR1; settings: at 10 µM
T2 sequence (whole entry): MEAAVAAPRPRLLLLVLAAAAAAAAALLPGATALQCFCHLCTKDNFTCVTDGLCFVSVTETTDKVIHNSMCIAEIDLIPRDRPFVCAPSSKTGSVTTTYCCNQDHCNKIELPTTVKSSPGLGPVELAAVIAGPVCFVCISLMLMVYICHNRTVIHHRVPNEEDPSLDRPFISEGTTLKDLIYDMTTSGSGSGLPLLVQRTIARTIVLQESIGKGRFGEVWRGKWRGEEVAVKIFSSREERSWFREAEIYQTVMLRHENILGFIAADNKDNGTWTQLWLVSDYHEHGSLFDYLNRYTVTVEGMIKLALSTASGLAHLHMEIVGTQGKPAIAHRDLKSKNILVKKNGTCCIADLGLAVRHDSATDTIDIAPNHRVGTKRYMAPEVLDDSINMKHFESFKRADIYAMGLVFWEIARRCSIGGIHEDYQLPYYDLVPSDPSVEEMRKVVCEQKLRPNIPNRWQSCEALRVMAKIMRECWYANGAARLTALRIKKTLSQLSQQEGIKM

[12] = target: T3, Cytoplasmic tyrosine-protein kinase BMX (Homo sapiens) (UniProt P51813); assay: Selectivity interaction (KinomeScan (DiscoverX)) EUB0000618a BMX; settings: at 10 µM
T3 sequence (whole entry): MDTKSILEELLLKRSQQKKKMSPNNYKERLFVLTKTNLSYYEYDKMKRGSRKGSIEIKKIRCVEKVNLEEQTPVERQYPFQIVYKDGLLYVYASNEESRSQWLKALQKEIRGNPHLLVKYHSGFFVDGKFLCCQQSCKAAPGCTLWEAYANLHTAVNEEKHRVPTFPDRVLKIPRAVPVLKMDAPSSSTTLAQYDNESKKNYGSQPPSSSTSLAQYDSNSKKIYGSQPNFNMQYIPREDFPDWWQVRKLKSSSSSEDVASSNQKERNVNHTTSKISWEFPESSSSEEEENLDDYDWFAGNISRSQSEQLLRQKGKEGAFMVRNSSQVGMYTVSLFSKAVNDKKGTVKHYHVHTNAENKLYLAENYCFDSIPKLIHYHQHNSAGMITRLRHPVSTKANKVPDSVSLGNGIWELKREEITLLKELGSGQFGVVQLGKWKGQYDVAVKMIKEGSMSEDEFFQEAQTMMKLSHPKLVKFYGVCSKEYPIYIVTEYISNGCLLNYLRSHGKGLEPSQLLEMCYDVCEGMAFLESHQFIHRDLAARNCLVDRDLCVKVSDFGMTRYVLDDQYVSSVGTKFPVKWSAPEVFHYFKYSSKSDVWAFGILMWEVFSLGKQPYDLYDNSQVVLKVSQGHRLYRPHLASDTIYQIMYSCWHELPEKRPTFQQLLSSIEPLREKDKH

[13] = target: Bone morphogenetic protein receptor type-1B (Homo sapiens, UniProt O00238); assay: Selectivity interaction (KinomeScan (DiscoverX)) EUB0000618a BMPR1B; settings: at 10 µM
Sequence of Bone morphogenetic protein receptor type-1B (O00238 whole entry): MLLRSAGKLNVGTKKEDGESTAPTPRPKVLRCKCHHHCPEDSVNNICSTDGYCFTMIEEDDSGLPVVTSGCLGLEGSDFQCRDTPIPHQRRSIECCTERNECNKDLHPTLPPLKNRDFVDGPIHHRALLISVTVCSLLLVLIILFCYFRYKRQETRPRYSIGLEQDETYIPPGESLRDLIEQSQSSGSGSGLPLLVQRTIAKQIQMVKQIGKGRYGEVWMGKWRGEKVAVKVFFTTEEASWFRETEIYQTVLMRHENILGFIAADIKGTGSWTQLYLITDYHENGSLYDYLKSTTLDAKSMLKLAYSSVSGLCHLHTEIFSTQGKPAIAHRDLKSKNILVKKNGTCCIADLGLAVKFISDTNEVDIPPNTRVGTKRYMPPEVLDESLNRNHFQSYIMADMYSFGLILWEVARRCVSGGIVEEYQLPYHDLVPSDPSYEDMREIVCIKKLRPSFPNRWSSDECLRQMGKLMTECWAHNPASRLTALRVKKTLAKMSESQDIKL

[14] = target: Maternal embryonic leucine zipper kinase (Homo sapiens) (UniProt Q14680); assay: Selectivity interaction (KinomeScan (DiscoverX)) EUB0001619a MELK; settings: at 1 µM

Sequence of 5'-AMP-activated protein kinase catalytic subunit alpha-2 (Homo sapiens) (P54646 whole entry, looked up): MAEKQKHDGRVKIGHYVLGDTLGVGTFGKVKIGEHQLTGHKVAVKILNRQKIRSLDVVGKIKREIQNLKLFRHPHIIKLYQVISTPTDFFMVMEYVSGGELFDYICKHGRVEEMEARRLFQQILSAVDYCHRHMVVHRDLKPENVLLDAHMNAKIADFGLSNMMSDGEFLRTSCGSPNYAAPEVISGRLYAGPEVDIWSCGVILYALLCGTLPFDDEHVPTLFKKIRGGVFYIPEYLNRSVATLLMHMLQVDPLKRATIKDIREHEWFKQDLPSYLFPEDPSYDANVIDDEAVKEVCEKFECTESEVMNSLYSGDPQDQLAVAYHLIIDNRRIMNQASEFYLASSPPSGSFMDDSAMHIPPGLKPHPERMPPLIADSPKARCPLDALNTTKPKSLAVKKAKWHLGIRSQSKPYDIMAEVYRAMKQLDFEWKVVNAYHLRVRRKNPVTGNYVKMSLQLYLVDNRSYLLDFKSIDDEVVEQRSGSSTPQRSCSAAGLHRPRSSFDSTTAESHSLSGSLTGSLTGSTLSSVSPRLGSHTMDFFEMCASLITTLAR

Cc1ccc(-c2ccc3c(ccc4sc5c(c43)NC[C@@H](C)NC5=O)n2)cn1
% of inhibition [1]: 6%

CCN(CC)CCCCNc1ncc2cc(-c3cc(OC)cc(OC)c3)c(NC(=O)NC(C)(C)C)nc2n1
% of control [2]: 100%

CC[C@@H]1[C@H](F)C(=O)N[C@@H]1COc1nccc2cc(C(N)=O)c(OC)cc12 [ZIMLOVISERTIB]
% of inhibition [3]: -4.2% | % of inhibition ([4]; at 0.01 µM): 18.4% | % of inhibition ([4]; at 0.04 µM): 1.9% | % of inhibition ([4]; at 0.2 µM): 22.9% | % of inhibition ([4]; at 1 µM): 70.9% | % of inhibition ([4]; at 5 µM): 78% | % of inhibition [5]: -2.2%

C=CC(=O)Nc1cccc(C(=O)Nc2ccc(Nc3cc(-c4[nH]c(SC)nc4C)ccn3)cc2)c1
% of control ([6]; at 1 µM): 98% | % of control ([6]; at 5 µM): 83%

CN(C)CCOc1ccc(-c2nc(-c3ccncc3)c(-c3ccc4c(c3)CC/C4=N\O)[nH]2)cc1
% of control [7]: 83%

C=CC(=O)Nc1cc(-n2c(=O)ccc3cnc4ccc(-c5ccc(NS(C)(=O)=O)cc5)cc4c32)ccc1C
% of control ([8]; at 1 µM): 92% | % of control ([8]; at 10 µM): 92%

Nc1cnc(N2CCc3cc(S(=O)(=O)Nc4c(F)cc(Cl)cc4F)cc(N4CCCC4=O)c32)nc1 [TP-020n]
% of control [9]: 67%

COc1cc(N(C)c2ccnc3ccc(C(F)(F)F)cc23)cc(OC)c1OC
% binding [10]: 100%

CCC(=O)N1CCN(c2ccc(-n3c(=O)ccc4cnc5ccc(-c6cnc7ccccc7c6)cc5c43)cc2C(F)(F)F)CC1
% of control [11]: 70%

O[C@H]1CC[C@H](Nc2ncc3nc(Nc4c(F)cc(F)cc4F)n([C@H]4CCOC4)c3n2)CC1
% of control [12]: 100% | % of control [13]: 100%

N#Cc1cccc(-c2c[nH]c3ncnc(N4CCOCC4)c23)c1
% of control [14]: 69%
